A short description of data set [1]: Naltrexone plasma pharmacokinetics from the literature and its reinterpretation. The data set is classed as in vivo. From the text: Phase II (RLD)—Days two to thirty. […] The higher serum levels of this phase serve two purposes. First, for the particular therapeutic agent chosen, the long-term maintenance dose releases drug slowly at a constant (zero order) rate. […] It has the disadvantage, however, that the plasma level will slowly rise until it reaches a plateau, which is referred to as steady state. The time to reach steady state is a function of the drug's half-life, a measure of the time it takes for half of the drug to be eliminated from the body. It takes approximately six half-lives to reach steady state for any drug. […] During this time it is essential that an additional source of drug be administered as a receptor loading dose to continue to saturate the drug receptors. A second reason for this loading dose, particularly for drugs used to treat addictions, is to prevent cravings and other withdrawal symptoms.
A period of approximately 3.3 half-lives is necessary to achieve a 90% receptor occupancy level.
Phase II (months 1 to 2) provides higher levels than the minimum needed to prevent narcotic highs. […] For pharmacokinetic reasons, the higher levels are also needed until the steady state distribution levels are reached through the slower maintenance dose.

A further data set relates to opiate receptors. The settings on record: recommended dose of 50 mg taken orally; cited from earlier work.

For `O=C1CC[C@@]2(O)[C@H]3Cc4ccc(O)c5c4[C@@]2(CCN3CC2CC2)[C@H]1O5` [naltrexone], in data set [1] (calculated as 3.3×72 hr at the maintenance rate), the “time to reach 90% receptor occupancy level” value is reported as “about 10 days”. Further, the “time to reach 98% occupancy” value in data set [1] (maintenance rate) is reported as “about 20 days”. Further, the steady state level result in data set [1] (subcutaneous product, zero order rate of 0.56 mg/day) is on record as “about 7.5 ng/ml”. For the same compound, the “duration of complete blockage” value in the data set on opiate receptors was 24 h.

(Values after patent publication US20020034534A1, “System and method for delivering a therapeutic agent over an extended period of time in conjuction with a receptor loading dose of the therapeutic agent” (priority 1999, published 2002).)
